The numbers were not newly measured in patent US20170326065A1, “METHODS AND COMPOSITION FOR TREATMENT OF CARDIOVASCULAR CONDITIONS” (Ezra Pharma LLC, priority 2016, published 2017), which cites them from elsewhere.

What is called Tmax is the time from dosing to the highest level. For `CCCCC(=O)N(Cc1ccc(-c2ccccc2-c2nnn[nH]2)cc1)[C@H](C(=O)O)C(C)C` [valsartan], the “T1/2 alpha phase of elimination” value (biphasic elimination, rapid alpha phase) was 1 to 2 h. In addition, the “T1/2 beta phase of elimination” value (biphasic elimination, slow beta phase, in h) is on record as 7-8. Moreover, where the note is “by 12 hours, marketed immediate release formulation”, the “peak plasma concentration reduced to” value was “approximately 65%”. In addition, where the note is “oral administration, printed range (10-35%)”, the absolute bioavailability result is listed as “about 25%”. The half-life result (valsartan) was “about 6 hours”. Moreover, the Tmax (valsartan, oral) is 2 to 4 h.
